Test results reported in patent US11202789B2, “Method of treating glycogen storage disease” (Viking Therapeutics, Inc., priority 2016, dated 2021).

Legend:
Assay type in all cases: in vivo
beagle dogs = assay: Compound 2 dosing study in dogs: plasma cholesterol; settings: for average reduction of total plasma cholesterol levels: Day 15, from baseline
Description: Compound 2 Dosing Study in Dogs: The objective of the study was to determine the effects of oral administration of Compound 2 once-daily for 14 days followed by alternate day dosing for 14 days on plasma cholesterol levels and indicators of thyroid function in beagle dogs. Compound 2 was formulated with Lutrol F68 NF (Poloxomer 188) and carboxymethylcellulose (CMC; sodium salt/high viscosity) and was administered as a suspension in 0.5% CMC/1% Lutrol in deionized water. […] At the end of the treatment cycle (Cycle 1), the dogs were washed out for 4 weeks and then entered into a second 14-day treatment cycle. Cycle 2 employed the same dosing paradigm as Cycle 1, but animals were randomized to Cycle 2 in such a way that the combined dosing groups from the two cycles consisted of 4 different animals (2 males, 2 females) each. At the conclusion of Cycle 2, dosing was continued on alternate days for an additional 14-day period (Cycle 2 Extension). Blood samples were collected at baseline and appropriate time intervals thereafter and analyzed for total plasma cholesterol levels, serum levels of total T4 (tT4), free T4 (fT4), total T3 (tT3), free T3 (fT3), and thyroid stimulating hormone (TSH).

male ob/ob mice = assay: 9-week efficacy and safety study in male ob/ob mice; settings: for total plasma cholesterol levels lower: after 9 weeks; for liver triglyceride levels lower: at 9 weeks
Description: The objective of this study was to evaluate the efficacy and safety of Compound 2 treatment at doses of 3, 10, and 30 mg/kg/day for 9 weeks in male ob/ob mice. 3,3′,5-Triiodo-L-thyronine (T3) was used as a comparator in this study.
Methods: Seventy-eight adult male ob/ob mice were assigned to six different treatment groups (n=6-24/group). Animals were dosed daily with either vehicle [1% carboxymethylcellulose (CMC) in water, PO], T3 [(100 nmole/kg/day in aqueous solution, subcutaneous (SC)], or Compound 2 [3, 10 or 30 mg/kg/day in 1% CMC, PO]. Blood glucose and plasma cholesterol were measured weekly in all animals. Subsets of animals in the vehicle-treated and 30 mg/kg/day Compound 2-treated groups were sacrificed after 3, 6 and 9 weeks of treatment to analyze the temporal effects of Compound 2 on liver weight and liver triglyceride levels. Liver triglyceride levels, liver glycogen content, heart, liver and epididymal fat pad weights, and plasma clinical chemistry parameters were measured at sacrifice.

G6PC−/− mice = assay: G6pc−/− mouse model of GSD Ia, 4 days of treatment (Example 13)
Description: The objective of this study was to determine the ability of Compound 2, a small molecule prodrug of a potent thyroid hormone beta receptor (TBR) agonist, to reduce hepatic steatosis and other metabolic derangements in the glucose-6-phosphatase catalytic subunit knockout (G6pc−/−) mouse model of glycogen storage disease type Ia (GSD Ia).
Mice were treated with Compound 2 or with vehicle, using 4 groups of 6-7 mice: G6pc−/−mice receiving Compound 2, G6pc−/−mice receiving vehicle, Wt mice receiving Compound 2, and WT mice receiving vehicle. Daily injection of 0.1 to 0.2 mL 10% dextrose subcutaneously was initiated at 3 days of age for all mice, and all mice continued to receive daily dextrose injections throughout drug or vehicle treatment. Dextrose was not administered on the day of tissue collection. Mice were treated daily with Compound 2 or with vehicle, respectively, from 5 to 8 days of age. Mice were sacrificed on Day 9, and blood and tissues were collected. The fasting serum glucose and triglycerides, hepatic lipid and glycogen content, and GSD-related cell signaling pathways were examined.

normal (wild type) mice = assay: Wild type mice treated alongside the G6PC−/− model (Example 12); settings: wild type (wt) mice
Description: Compound 2 was tested in a G6PC−/−mouse model of GSD Ia. Daily injection of 0.1 to 0.2 mL 10% dextrose subcutaneously was initiated within 3 days of age for G6PC−/−mice. All G6PC−/−mice continued to receive daily dextrose injections during this time. Blood was collected at time of euthanasia, when tissues were collected. Two groups of 4 G6PC−/−mice (1 group treated with Compound 2, 1 group treated with vehicle) were analyzed to identify statistically significant differences between Compound 2-treated and vehicle-treated controls. We also treated 2 groups of 3 normal (wild type) mice, one with Compound 2 and one with vehicle.
Initially the GSD Ia mice were treated with Compound 2 from 5 to 10 days of age. Body mass, liver mass, liver glycogen concentration, liver triglycerides, fasting serum glucose, fasting serum triglycerides, and GSD-related cell signaling pathways were examined. Similarly, groups of GSD Ia mice were treated with vehicle for 5 days to serve as mock-treated controls for all assays. Groups of 3-4 mice were evaluated. GSD Ia mice were treated for >7 days to assess survival and longer-term effects of Compound 2 as described above (GSD Ia mice rarely survive >12 days of life without a therapeutic intervention). Metabolomic analysis of hepatic extracts were performed as described (Sinha, Farah et al. (2013), Hepatology 59(4):1366-80). Acylcarnitine and amino acid profiling were employed to detect any changes related to increased lipolysis and fatty acid beta-oxidation as described by Sinha et al. (Sinha, Farah et al. (2013), Hepatology 59(4):1366-80). […] Mean liver triglyceride content was reduced by more than 60% in Compound 2-treated animals relative to vehicle-treated control animals, while average liver weight was reduced by more than 30% vs. controls. Importantly, average liver weight as a percent of total body weight also declined by approximately 20% in treated vs. control animals. Further, treatment with Compound 2 led to statistically significant reductions in key metabolic markers of GSD Ia.

SMILES: Cc1cc(OCP2(=O)OCCC(c3cccc(Cl)c3)O2)cc(C)c1Cc1ccc(O)c(C(C)C)c1 (stereo not drawn) [Compound 2]
- effects on total plasma cholesterol levels (beagle dogs; 0.1 mg/kg/day oral once-daily): minimal effects
- average reduction of total plasma cholesterol levels from baseline (beagle dogs; Day 15, 0.3 mg/kg/day oral once-daily for 14 days): ~22%
- average reduction of total plasma cholesterol levels from baseline (beagle dogs; Day 15, 10 mg/kg/day oral once-daily for 14 days): ~47%
- average reduction of total plasma cholesterol levels (beagle dogs; 0.3 mg/kg/day oral once-daily for 14 days): ~28 mg/dL
- average reduction of total plasma cholesterol levels (beagle dogs; 10 mg/kg/day oral once-daily for 14 days): ~71 mg/dL
- total plasma cholesterol levels relative to vehicle-treated animals (beagle dogs; alternate day dosing for 14 days (Cycle 2 Extension)): remained reduced relative to vehicle-treated animals to a similar or greater extent than observed after once-daily dosing
- total plasma cholesterol levels lower (male ob/ob mice; 3 mg/kg/day PO, vs vehicle): ~43%
- liver glycogen content (male ob/ob mice; 10 mg/kg/day PO, 9 weeks, vs vehicle (FIG. 5)): significantly (p<0.05) higher
- total plasma cholesterol levels lower (male ob/ob mice; 10 mg/kg/day PO, vs vehicle): ~42%
- liver triglyceride levels lower (male ob/ob mice; 10 mg/kg/day PO, vs vehicle): ~39%
- total plasma cholesterol levels lower (male ob/ob mice; 30 mg/kg/day PO, vs vehicle): ~47%
- liver triglyceride levels lower (male ob/ob mice; 30 mg/kg/day PO, vs vehicle): ~46%
- liver triglyceride levels (male ob/ob mice; 30 mg/kg/day PO, from Week 3 onwards, vs vehicle): lower
- terminal liver glycogen levels (male ob/ob mice; Compound 2-treated groups (3, 10, 30 mg/kg/day PO), 9 weeks, vs vehicle): modestly higher or similar
- alanine aminotransferase (ALT) levels (male ob/ob mice; all dose groups (3, 10, 30 mg/kg/day PO)): Decreased
- terminal liver weights (male ob/ob mice; all dose groups (3, 10, 30 mg/kg/day PO), 9 weeks, vs vehicle): lower
- difference in kidney mass as a percentage of total body mass, Compound 2 vs vehicle (G6PC−/− mice; G6pc−/− mice (FIG. 23B)): not significant
- mean total liver triglycerides reduced (G6PC−/− mice; G6pc−/− mice, 4 days of drug treatment, vs vehicle-treated controls, p<0.0001): 69.0%
- mean serum triglyceride concentration (G6PC−/− mice; G6pc−/− mice, drug treatment (vehicle 729.59 mg/dL)): 336.58 mg/dL
- decrease in mean serum triglyceride concentration (G6PC−/− mice; G6pc−/− mice, drug treatment vs vehicle): 54.0%
- mean total liver triglycerides (G6PC−/− mice; G6pc−/− mice, following 4 days of drug treatment (vehicle 13.550 mg)): 4.210 mg
- blood glucose measurements (G6PC−/− mice; G6pc−/− mice, lower detection limit of the glucometer (FIG. 27)): < 20 mg/dL
- mean liver weights (G6PC−/− mice; G6pc−/− mice, treated (control 393.55 mg)): 253.11 mg
- mean liver weights reduced (G6PC−/− mice; G6pc−/− mice, treated vs control, p<0.05): over 30%
- body mass (G6PC−/− mice; daily treatment from 5 to 8 days of age (FIG. 22)): not affected
- kidney mass (G6PC−/− mice; daily treatment from 5 to 8 days of age (FIG. 23)): not affected
- liver glycogen concentration (G6PC−/− mice; under the dosing parameters chosen (FIG. 26)): no significant changes
- serum glucose concentration (G6PC−/− mice; under the dosing parameters chosen (FIG. 27)): no significant changes
- serum triglyceride concentration (G6PC−/− mice; under the dosing parameters chosen (FIG. 28)): no significant changes
- body mass (normal (wild type) mice; vs vehicle-treated controls (FIG. 15)): reduced
- liver mass (normal (wild type) mice; vs vehicle-treated controls (FIG. 16)): reduced
- liver mass as a percentage of body mass (normal (wild type) mice; vs vehicle-treated controls (FIG. 17)): reduced
- liver glycogen levels (normal (wild type) mice; vs vehicle-treated controls (FIG. 18)): significantly reduced
- serum triglycerides (normal (wild type) mice; vs vehicle-treated controls (FIG. 19)): somewhat enhanced
- liver triglyceride concentrations (normal (wild type) mice; vs vehicle-treated controls (FIG. 20)): reduced
- total liver triglycerides (normal (wild type) mice; vs vehicle-treated controls (FIG. 21)): reduced
